Legend:
Rat Liver Microsome = test: Activity to Inhibit Hyperoxidation of Lipid of Rat Liver Microsome (thiobarbituric acid method); type: biochemical
Protocol: Activity to Inhibit Hyperoxidation of Lipid of Rat Liver Microsome
A rat liver microsome was prepared according to a conventional method, and suspended in 1.15% KCl to obtain a microsome suspension.
The above microsome suspension in an amount equivalent to 2 mg of a protein was added to a tris-HCl buffer (pH 7.4) to which NADPH, ADP and FeCl3 had been added such that the final concentrations were 0.2 mM of NADPH, 1 mM of ADP and 10 μM of FeCl3.
A dimethylformamide (DMF) solution of each of test compounds in an amount of 10 μl or DMF in an amount of 10 μl was added such that the total amount of each of the mixtures was 1 ml, and then, the mixtures were kept at 37° C. for 20 minutes. In addition, the test compounds were added in such amounts that their final concentrations became 10^-5 M.
Thereafter, according to a thiobarbituric acid method, the above mixtures were measured for an amount of peroxide lipid formed. The inhibiting activities of the test compounds were compared with that of the group containing the solvent (DMF) alone, and the results were expressed as an inhibition ratio (%).

[1] = tested on: Ischemic Acute Renal Insufficiency; test: Action on Ischemic Acute Renal Insufficiency; type: in vivo, male Wistar rats; conditions: intravenous, 72 hours after reperfusion
Protocol: Action on Ischemic Acute Renal Insufficiency
Four male Wistar rats (weight: about 200 g per rat) were used as one group for each test. Each of the rats was anesthetized with sodium pentobarbital, the right kidney was extirpated, and immediately thereafter, 100 IU/kg of heparin was intravenously administered to its tail. Eight minutes after the administration, the left renal artery was ligated with a suture, and 60 minutes after the ligation, and the renal artery was reperfused by unligating the suture to develop ischemic acute renal insufficiency in each of the rats.
Immediately before the administration of sodium pentobarbital and 72 hours after the reperfusion, blood samples were taken from the tail artery of each rat, and the serums obtained by centrifugation of the sample bloods were respectively measured for a blood urea nitrogen (BUN) amount and a creatinine amount, indices for renal insufficiency, with an autoanalyzer (AU550, supplied by Olympus K.K.).
In addition, the test compound was suspended in a physiological saline containing 1% olive oil and 1% Tween 80, and the resultant suspension was intravenously administered to the tail of each rat 10 minutes before the administration of sodium pentobarbital or 10 minutes before the reperfusion such that the dose of the test compound was 10 mg/kg or 30 mg/kg.

Mouse = test: Acute Toxicity Test on Mouse; type: in vivo, Male 3-ICR mice; conditions: intravenous
Protocol: Acute Toxicity Test on Mouse
Male 3-ICR mice (10 weeks of age) were used. The compounds (Ia2), (Ia3) and (IA2) were intravenously administered to the mice in such a manner that the doses of each of the compounds were 30 mg/kg and 100 mg/kg. For one week after the administration, symptoms were observed.

CCl4 Liver Dysfunction = test: Action on CCl4 Liver Dysfunction; type: in vivo, ICR male mice; conditions: oral
Protocol: Action on CCl4 Liver Dysfunction
Fourteen and seventeen ICR male mice were used as one group for each test. Each of the mice was hypodermically administered in its dorsal portion with 10 ml/kg of a solution of 10% CCl4 in olive oil to develop acute hepatitis, and the serum obtained by centrifugation of a blood sample taken from each mouse 48 hours after the administration was measured on GOT (glutamic-oxaloacetic transaminase) activity and GPT (glutamic-pyruvictransaminase) activity with an autoanalyzer (AU550, supplied by Olympus K.K.).
In addition, the test compound was suspended in physiological saline containing 1% olive oil and 1% Tween 80, and the resultant suspension was orally administered three times in total, immediately after the CCl4 administration and in the morning and evening on the day thereafter, such that the dose of each test compound was 100 mg/kg/one time administration.

Stability Test = type: physicochemical; conditions: room temperature, after 24 hours, tris-HCl buffer pH 9.0; read-out: residual content
Protocol: A tris-HCI buffer having pH of 9.0 was added to each of alcohol solutions of the compounds (Ia2), (Ia3), (IA2) and 2-O-dodecyl ascorbic acid, which was a position isomer of the compound (IA2), in such a manner that the amount of the buffer was 100 times as large as that of each alcohol solution.
The test compounds in the solutions which were allowed to stand at room temperature were quantitatively determined with time to measure their stability.

[2] = tested on: Ventricular Arrhythmia During Coronary Occlusion-Reperfusion in Rat Heart; test: Activity to Inhibit Ventricular Arrhythmia During Coronary Occlusion-Reperfusion in Rat Heart; type: in vivo, male Wistar rats; conditions: for Total time of arrhythmia occurrence (second) (mean + S.E.): 10 minutes (600 seconds) observation
Protocol: Activity to Inhibit Ventricular Arrhythmia During Coronary Occlusion-Reperfusion in Rat Heart
Five to ten male Wistar rats (weight 230 to 460 g per rat) were used as one group for each of test compounds. Each of the rats was anesthetized with sodium pentobarbital, and electrocardiograms thereof were recorded with standard lead II.
The rats were subjected to thoracotomy under artificial respiration, and left coronary artery ramus anterior descendenses were ligated for 5 minutes and then perfused.
In addition, each of test compounds was suspended in a physiological saline containing 1% olive oil and 1% Tween 80, and the resultant suspensions were administered into femoral veins 2 minutes before the coronary occlusion, or orally administered 1 hour before the coronary occlusion, such that the amounts of said compounds were as predetermined.
When a left coronary artery ramus anterior descendence is occluded for 5 minutes and then reperfused, ventricular arrhythmia typified by ventricular tachycardia (VT) and ventricular fibrillation (VF) occurs.

[3] = tested on: Ischemic Brain Model Mouse; test: Action on Survival Rate of Ischemic Brain Model Mouse; type: in vivo, ICR male mice; conditions: oral, 100 mg/kg
Protocol: Action on Survival Rate of Ischemic Brain Model Mouse
Thirteen to fifty-six ICR male mice were used as one group for each of test compounds. Each of the mice was anesthetized by intraperitoneal administration of sodium pentobarbital, the bilateral carotid arteries were exposed, a thread was put around the arteries, and the skin was sutured with one end of the thread outside the body.
Three days after the suture of the skin, the bilateral carotid arteries were ligated for 3 minutes, and then reperfused to obtain ischemic brain model mice. And, a survival rate in each group 24 hours after the ligation-reperfusion of bilateral carotid arteries was determined.
In addition, each of the test compounds was suspended in a physiological saline containing 1% olive oil and 1% Tween 80, and the suspension was orally administered one hour before the ligation of the bilateral carotid arteries such that the amount of each test compound was 100 mg/kg.

[4] = 10^-5 M, pH 7.4, 37° C., 20 minutes, versus solvent (DMF) alone, 10 µM
[5] = 10^-5 M, pH 7.4, 37° C., 20 minutes, versus solvent (DMF) alone; 10 µM
[6] = 100 mg/kg/one time, three times, serum 48 hours after CCl4

Question: Which “Lipid hyperoxidation inhibition ratio (%)” value (Rat Liver Microsome; [4]) does the source give for `CCCCCCCCCCCCCCC(=O)COC1=C(O)C(=O)OC1C(O)CO` (centres unmarked) [Compound (Ia4)] here?
Answer: 65%

Question: With `CCCCCCCCCCCCCCCCCCOC1=C(O)C(=O)O[C@@H]1[C@@H](O)CO` [(d), reference compound] as the compound, how does the “Lipid hyperoxidation inhibition ratio (%)” value (Rat Liver Microsome; [5]) read?
Answer: 45%

Question: For `CCCCCCCCCCCCCCCCCCOC(=O)COC1=C(O)C(=O)O[C@@H]1[C@@H](O)CO` [Compound (IA6)], which “Lipid hyperoxidation inhibition ratio (%)” value (Rat Liver Microsome; [4]) is on record?
Answer: 73%

Question: Which “Lipid hyperoxidation inhibition ratio (%)” value (Rat Liver Microsome; [4]) does the source give for `CCCCCCCCCCOC(=O)COC1=C(O)C(=O)O[C@@H]1[C@@H](O)CO` [Compound (IA5)] here?
Answer: 72%

Question: For `CCCCCCCCOC1=C(O)C(=O)O[C@@H]1[C@@H](O)CO` [(c), reference compound], which “Lipid hyperoxidation inhibition ratio (%)” value (Rat Liver Microsome; [5]) is on record?
Answer: 40%

Question: For `CCCCCCC(=O)COC1=C(O)C(=O)O[C@@H]1[C@@H](O)CO` [(a), reference compound], which “Lipid hyperoxidation inhibition ratio (%)” value (Rat Liver Microsome; [5]) is on record?
Answer: 27%

Question: Which “BUN amount (mean ± S.E.)” value ([1]; 10 mg/kg) does the source give for `CCCCCCCCCCCCC(=O)COC1=C(O)C(=O)O[C@@H]1[C@@H](O)CO` [Compound (Ia3), 3-O-dodecylcarbonylmethyl ascorbic acid] here?
Answer: 33.8 ± 6.1 mg/dL

Question: And the “Creatinine amount (mean ± S.E.)” value ([1]; 10 mg/kg)?
Answer: 0.93 ± 0.05 mg/dL

Question: What about the “BUN amount (mean ± S.E.)” value ([1]; 30 mg/kg) of the same compound?
Answer: 34.1 ± 8.9 mg/dL

Question: What about the “Creatinine amount (mean ± S.E.)” value ([1]; 30 mg/kg) of the same compound?
Answer: 1.04 ± 0.12 mg/dL

Question: What about the “BUN amount versus vehicle group” value ([1]; 10 or 30 mg/kg) of the same compound?
Answer: significantly smaller

Question: And the “creatinine amount versus vehicle group” value ([1]; 10 or 30 mg/kg)?
Answer: significantly smaller

Question: And the “death during observation for one week” value (Mouse; 30 mg/kg)?
Answer: no death was found

Question: And the “death during observation for one week” value (Mouse; 100 mg/kg)?
Answer: no death was found

Question: And the “GOT activity value” (CCl4 Liver Dysfunction; 100 mg/kg)?
Answer: significantly reduced

Question: What about the “GPT activity value” (CCl4 Liver Dysfunction; 100 mg/kg) of the same compound?
Answer: significantly reduced

Question: What about the “GOT activity (mean ± S.E)” value (CCl4 Liver Dysfunction; [6]) of the same compound?
Answer: 445.0 ± 69.0 Unit/1

Question: And the “GPT activity (mean ± S.E)” value (CCl4 Liver Dysfunction; [6])?
Answer: 1,406.4 ± 185.2 Unit/1

Question: What about the remaining at 24 h (Stability Test) of the same compound?
Answer: ≥ 80%

Question: And the “Total time of arrhythmia occurrence (second) (mean + S.E.)” value (“Total time of arrhythmia occurrence” below) ([2]; i.v., 0.3 mg/kg, 2 minutes before coronary occlusion)?
Answer: 471.0 ± 73.6 s

Question: And the “Total time of arrhythmia occurrence” value ([2]; i.v., 1 mg/kg, 2 minutes before coronary occlusion)?
Answer: 216.1 ± 59.6 s

Question: What about the “Total time of arrhythmia occurrence” value ([2]; i.v., 3 mg/kg, 2 minutes before coronary occlusion) of the same compound?
Answer: 273.5 ± 93.8 s

Question: And the “Total time of arrhythmia occurrence” value ([2]; i.v., 10 mg/kg, 2 minutes before coronary occlusion)?
Answer: 203.8 ± 91.0 s

Question: What about the “Total time of arrhythmia occurrence” value ([2]; i.v., 30 mg/kg, 2 minutes before coronary occlusion) of the same compound?
Answer: 150.5 ± 79.8 s

Question: What about the “inhibition of occurrence of arrhythmia” value ([2]; intravenously, not less than 1 mg/kg) of the same compound?
Answer: same significant inhibition

Question: And the “inhibition of occurrence of arrhythmia” value ([2]; orally, not less than 10 mg/kg)?
Answer: same significant inhibition

Question: What about the “Total time of arrhythmia occurrence” value ([2]; p.o., 10 mg/kg, 1 hour before coronary occlusion) of the same compound?
Answer: 378.2 ± 61.4 s

Question: And the “Total time of arrhythmia occurrence” value ([2]; p.o., 30 mg/kg, 1 hour before coronary occlusion)?
Answer: 313.3 ± 81.7 s

Question: And the “Total time of arrhythmia occurrence” value ([2]; p.o., 100 mg/kg, 1 hour before coronary occlusion)?
Answer: 85.4 ± 28.9 s

Question: And the “Total time of arrhythmia occurrence” value ([2]; p.o., 300 mg/kg, 1 hour before coronary occlusion)?
Answer: 123.6 ± 43.7 s

Question: And the “Survival rate (%)” value ([3]; one hour before ligation, 24 hours after ligation-reperfusion of bilateral carotid arteries)?
Answer: 80.0%

Question: What about the “survival rate versus vehicle group” value ([3]; 24 hours after ligation-reperfusion) of the same compound?
Answer: significantly higher

Question: And the “Lipid hyperoxidation inhibition ratio (%)” value (Rat Liver Microsome; [4])?
Answer: 85%

Question: What about the “Lipid hyperoxidation inhibition ratio (%)” value (Rat Liver Microsome; 10^-5 M, pH 7.4, 37° C., 20 minutes, versus solvent (DMF) alone, 10 µM, listed as Compound (IA3)) of the same compound?
Answer: 81%

Question: With `CCCCCCCCCCCCCCCCC(=O)COC1=C(O)C(=O)O[C@@H]1[C@@H](O)CO` [(b), reference compound] as the compound, how does the “Lipid hyperoxidation inhibition ratio (%)” value (Rat Liver Microsome; [5]) read?
Answer: 43%

— patent publication US5194445A, “Ascorbic acid derivative” (Nippon Hypox Laboratories Incorporated, priority 1989, dated 1993)
